Measurements: ChEMBL document CHEMBL4665783, “N-terminal modified cyclopeptidic mimetics of Apollo as inhibitors of TRF2” (Bioorg Med Chem Lett, 2020)

These compounds were tested against T1, Telomeric repeat-binding factor 2 (Homo sapiens, UniProt Q15554) (assay: Binding affinity to TRFH domain of TRF2 (residues 42 to 245) (unknown origin) by FP based assay).
T1 sequence (Q15554 whole entry): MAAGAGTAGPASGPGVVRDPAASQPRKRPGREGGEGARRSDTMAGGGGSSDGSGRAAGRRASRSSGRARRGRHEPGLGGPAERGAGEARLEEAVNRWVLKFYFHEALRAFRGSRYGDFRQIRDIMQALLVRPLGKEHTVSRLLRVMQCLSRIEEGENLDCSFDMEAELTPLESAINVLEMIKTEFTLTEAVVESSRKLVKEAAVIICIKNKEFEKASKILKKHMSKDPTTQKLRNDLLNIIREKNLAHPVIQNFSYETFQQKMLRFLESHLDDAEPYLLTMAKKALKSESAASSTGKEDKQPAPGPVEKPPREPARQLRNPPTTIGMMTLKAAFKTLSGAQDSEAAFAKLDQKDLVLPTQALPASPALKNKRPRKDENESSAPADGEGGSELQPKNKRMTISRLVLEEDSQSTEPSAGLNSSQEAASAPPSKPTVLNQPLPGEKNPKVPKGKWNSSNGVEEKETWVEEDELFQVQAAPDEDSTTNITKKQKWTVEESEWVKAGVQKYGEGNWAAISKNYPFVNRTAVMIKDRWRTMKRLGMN
A Ki of 35 µM was found for `CC(C)C[C@@H]1NC(=O)[C@@H](NC(=O)c2cc(OCCN)cc(OCc3ccccc3)c2)COCCCCOC[C@@H](C(=O)N(C)C)NC(=O)[C@@H]2CCCN2C(=O)[C@H](C)NC1=O` in this work. A Ki of 5.1 µM was found for `CC(C)C[C@@H]1NC(=O)[C@@H](NC(=O)c2cc(OCc3ccccc3)cc(OC3CCCC3)c2)COCCCCOC[C@@H](C(=O)N(C)C)NC(=O)[C@@H]2CCCN2C(=O)[C@H](C)NC1=O` in this work. A Ki of 11 µM was found for `CC(C)C[C@@H]1NC(=O)[C@@H](NC(=O)c2cc(OCc3ccccc3)cc(OC(C)C)c2)COCCCCOC[C@@H](C(=O)N(C)C)NC(=O)[C@@H]2CCCN2C(=O)[C@H](C)NC1=O` in this work. A Ki of 4.2 µM was found for `CC(C)C[C@@H]1NC(=O)[C@@H](NC(=O)c2cc(OCc3ccccc3)cc(OCC3CC3)c2)COCCCCOC[C@@H](C(=O)N(C)C)NC(=O)[C@@H]2CCCN2C(=O)[C@H](C)NC1=O` in this work. A Ki of 0.33 µM was found for Ac-LALKYLLTPV-NH2 in this work. A Ki of 4.9 µM was found for `CC(C)C[C@@H]1NC(=O)[C@@H](NC(=O)c2cc(OCc3ccccc3)cc(OC3CCC3)c2)COCCCCOC[C@@H](C(=O)N(C)C)NC(=O)[C@@H]2CCCN2C(=O)[C@H](C)NC1=O` in this work. A Ki of 4.3 µM was found for `CC(C)C[C@@H]1NC(=O)[C@@H](NC(=O)c2cc(OCc3ccccc3)cc(OCC3CCC3)c2)COCCCCOC[C@@H](C(=O)N(C)C)NC(=O)[C@@H]2CCCN2C(=O)[C@H](C)NC1=O` in this work. A Ki of 6.9 µM was found for `CC(C)C[C@@H]1NC(=O)[C@@H](NC(=O)c2cc(OCc3ccccc3)cc(OCC3CCCC3)c2)COCCCCOC[C@@H](C(=O)N(C)C)NC(=O)[C@@H]2CCCN2C(=O)[C@H](C)NC1=O` in this work.

What follows are compounds tested against T1, Telomeric repeat-binding factor 2 (assay: Binding affinity to biotinylated TRF2 (unknown origin) by biolayer interferometry assay).
A Kd of 2.5 µM was found for `CC(C)C[C@@H]1NC(=O)[C@@H](NC(=O)c2cc(OCc3ccccc3)cc(OCC3CC3)c2)COCCCCOC[C@@H](C(=O)N(C)C)NC(=O)[C@@H]2CCCN2C(=O)[C@H](C)NC1=O` in this work.
